Measurements taken from patent publication US10946016B2, “Solid forms of an epidermal growth factor receptor kinase inhibitor” (Celgene CAR LLC, priority 2012, dated 2021).
Entries after “also recorded” stand apart in the source; their conditions may differ.

Experiments:
Assay type in all cases: physicochemical
[1] = Stability at 40° C./75% RH for 1 week and 2 weeks (XRPD and HPLC); conditions: open container
Method: Samples of each form were exposed to an environment of 40° C./75% RH for 1 week and 2 week periods to determine stability. Resulting solids were analysed by XRPD and HPLC to establish if any changes had occurred.

[2] = Aqueous solubility: slurries in deionised water, HPLC; conditions: slurry in deionised water shaken ca. 24 hours; for aqueous solubility: assessment in words
Method: Slurries of all each polymorphic form were created in deionised water and shaken for ca. 24 hours. The resulting solid was then analysed by HPLC to determine the concentration of material dissolved.

[3] = XRPD after heating or drying (solid form conversion)
Method: X-ray powder diffraction (XRPD) analysis was carried out on a Siemens D5000, scanning the samples between 3 and 30 or 50° 2-theta. For samples <100 mg, ca. 5-10 mg of sample was gently compressed onto a glass slide which fitted into the sample holder. For samples >100 mg, ca. 100 mg of sample was gently compressed into a plastic sample holder, so that the sample surface was smooth and just above the level of the sample holder. Measurements were made as follows: In order to determine the relationship between Forms A and B, a sample of Form B was heated to 120° C. and then XRPD analysis was carried out. […] To determine whether Form C remains the same after losing the solvent present, a sample of Form C was heated to 120° C. (i.e., just past the temperature at which the solvent is removed) and then XRPD analysis was carried out. […] In order to determine whether Form E remains the same after losing the solvent present, a sample of Form E was heated to 120° C. (i.e., just past the temperature at which the solvent is lost) and then XRPD analysis was carried out. […] In order to determine whether Form F remains the same after losing the solvent present, a sample of Form F was heated to 120° C. (i.e., just past the temperature at which the solvent is lost) and then XRPD analysis was carried out. […] To examine whether Form H changes to Form A after heating to 115° C. (point after the solvent loss), the Form H material was heated to 115° C. and XRPD analysis and DSC analysis were then carried out. […] The DSC analysis (FIG. 49) indicated overlapping endotherms between ca. 115-135° C., followed by an exotherm at peak 143.9° C., likely indicating a polymorphic transition. A final endotherm was present at onset 202.7° C. (peak 206.6° C.) corresponding with the Form A melt.

[4] = Dynamic vapour sorption (DVS) with post DVS XRPD; conditions: for DVS water uptake: between 20 and 70% RH
Method: For dynamic vapour sorption (DVS), approximately 10 mg of sample was placed into a wire mesh vapour sorption balance pan and loaded into a DVS-1 dynamic vapour sorption balance by Surface Measurement Systems. The sample was subjected to a ramping profile from 20-90% relative humidity (RH) at 10% increments, maintaining the sample at each step until a stable weight had been achieved (99.5% step completion). After completion of the sorption cycle, the sample was dried using the same procedure, but all the way down to 0% RH and finally taken back to the starting point of 20% RH. The weight change during the sorption/desorption cycles were plotted, allowing for the hygroscopic nature of the sample to be determined.

[5] = ambient under vacuum 7 days, then 2 days at 40° C.

| SMILES | HPLC purity after storage ([1]; 1 week) | XRPD analysis after storage ([1]; 1 week) | HPLC purity after storage ([1]; 2 week) | XRPD analysis after storage ([1]; 2 week) | detection by HPLC analysis for the aqueous solubility [2] | aqueous solubility [2] | XRPD after drying [3, 5] | XRPD after heating ([3]; heated to 120° C.) | Post DVS XRPD (solid form) [4] | DVS water uptake [4] | DVS analysis observation [4] | XRPD after heating ([3]; heated to 160° C.) | hygroscopicity (DVS) [4] | XRPD after drying ([3]; 80° C. for 4 days) |
| --- | --- | --- | --- | --- | --- | --- | --- | --- | --- | --- | --- | --- | --- | --- |
| C=CC(=O)Nc1cccc(Nc2nc(Nc3ccc(N4CCN(C(C)=O)CC4)cc3OC)ncc2C(F)(F)F)c1 [Form E, N-(3-(2-(4-(4-acetylpiperazin-1-yl)-2-methoxyphenylamino)-5-(trifluoromethyl)pyrimidin-4-ylamino)phenyl)acrylamide] | ca. 97.7% | predominantly amorphous with visible peaks present corresponding with Form A | ca. 97.3% | predominantly amorphous with visible peaks present corresponding with Form A | could not be detected | extremely poor | lost some crystallinity and converted to Form A | converted to Form A | converted to Form A | 0.25% | – | – | – | – |
| C=CC(=O)Nc1cccc(Nc2nc(Nc3ccc(N4CCN(C(C)=O)CC4)cc3OC)ncc2C(F)(F)F)c1 [Form C, N-(3-(2-(4-(4-acetylpiperazin-1-yl)-2-methoxyphenylamino)-5-(trifluoromethyl)pyrimidin-4-ylamino)phenyl)acrylamide] | ca. 97.1% | converted to Form A with some loss in crystallinity | ca. 96.8% | poorly crystalline with the peaks present corresponding with Form A | could not be detected | poor | some loss in crystallinity and converted to Form A | converted to Form A | converted to Form A | – | contain solvent, which is lost as the relative humidity is increased | – | – | – |
| C=CC(=O)Nc1cccc(Nc2nc(Nc3ccc(N4CCN(C(C)=O)CC4)cc3OC)ncc2C(F)(F)F)c1 [Form D, N-(3-(2-(4-(4-acetylpiperazin-1-yl)-2-methoxyphenylamino)-5-(trifluoromethyl)pyrimidin-4-ylamino)phenyl)acrylamide] | ca. 96.5% | converted completely to Form B with some loss in crystallinity | ca. 95.5% | poorly crystalline with the peaks present corresponding with Form B | could not be detected | extremely poor | – | – | converted completely to Form B | – | contain solvent which is lost as the relative humidity is increased | – | – | – |
| C=CC(=O)Nc1cccc(Nc2nc(Nc3ccc(N4CCN(C(C)=O)CC4)cc3OC)ncc2C(F)(F)F)c1 [Form F, N-(3-(2-(4-(4-acetylpiperazin-1-yl)-2-methoxyphenylamino)-5-(trifluoromethyl)pyrimidin-4-ylamino)phenyl)acrylamide] | ca. 96.8% | converted to Form A, with some loss in crystallinity | ca. 96.3% | partially crystalline with peaks present corresponding with Form A | could not be detected; also recorded: below the limit of quantification | poor | lost some crystallinity and converted predominantly to Form A | converted predominantly to Form A | converted predominantly to Form A (traces of Form F remaining) | – | contain solvent, which is lost as the relative humidity is increased | – | – | – |
| C=CC(=O)Nc1cccc(Nc2nc(Nc3ccc(N4CCN(C(C)=O)CC4)cc3OC)ncc2C(F)(F)F)c1 [Form B, N-(3-(2-(4-(4-acetylpiperazin-1-yl)-2-methoxyphenylamino)-5-(trifluoromethyl)pyrimidin-4-ylamino)phenyl)acrylamide] | ca. 96.8% | predominantly amorphous | ca. 95.9% | predominantly amorphous | could not be detected | poor | – | mixture of Form B and Form A | remained Form B | 0.74% | – | converted predominantly to Form A | non-hygroscopic | – |
| C=CC(=O)Nc1cccc(Nc2nc(Nc3ccc(N4CCN(C(C)=O)CC4)cc3OC)ncc2C(F)(F)F)c1 [Form G, N-(3-(2-(4-(4-acetylpiperazin-1-yl)-2-methoxyphenylamino)-5-(trifluoromethyl)pyrimidin-4-ylamino)phenyl)acrylamide] | ca. 96.8% | converted predominantly to Form A, with some loss in crystallinity | ca. 96.2% | converted predominantly to Form A, with some loss in crystallinity | – | poor | converted to Form A | – | converted to Form A | – | contain significant amounts of solvent that are lost as the relative humidity is increased | – | – | converted to Form A |
